These results are taken from US20230348416A1, “GPR52 MODULATOR COMPOUNDS” (Heptares Therapeutics Limited, priority 2020, published 2023).

This assay has as its target T1, human GPR52 (Homo sapiens, UniProt Q9Y2T5).
T1 construct: expressed in transfected cells; host or cells: HEKf suspension cells infected with BacMam virus
Put plainly: GPR52 Agonist Functional cAMP Assay. The following applies: for EC50: HEKf cells infected with human GPR52 BacMam virus, HTRF cAMP, 30 min at 37° C., read-out: PEC50 average (converted); for Emax / Emax (%): maximal response normalised to DMSO (0%) and compound 7m of J. Med. Chem., 2014, 57, 5226 (100%). It is filed as cell-based. As to the method:
GPR52 Agonist Functional cAMP Assay
HEKf suspension cells were infected for 24 h with 0.1% v/v human GPR52 expressing BacMam virus, a modified baculovirus designed for mammalian gene expression. Following BacMam infection, cells were pelleted by centrifugation (335 g, 5 min), resuspended in cell freezing medium (Sigma) and frozen at −150° C. until required. On experiment day, 25 nL GPR52 compound dilutions, prepared in DMSO, were stamped onto proxiplates (PerkinElmer) by a LabCyte ECHO acoustic dispenser. Frozen cells were thawed and resuspended in assay stimulation buffer (Cisbio) containing 0.5 mM 3-iso-butyl-1-methylxanthine (IBMX, Sigma) to achieve a density of 2000 cells per well. 10 μl cells were added to assay plates using a Multidrop Combi Reagent Dispenser (ThermoFisher) before centrifugation (335 g, 1 min). Cells were incubated with compounds at 37° C. for 30 min prior to addition of cAMP detection reagents (HiRange cAMP kit, Cisbio) which were prepared according to the manufacturer's instructions. Plates were shaken for 1 h at room temperature before reading on a PHERAstar FS plate reader (BMG Labtech) using standard HTRF settings. HTRF ratios were obtained by dividing the acceptor emissions (665 nm) by the donor emissions (620 nm) and multiplying by 10,000.
For orientation: In TR-FRET formats the signal depends on donor and acceptor labels being close together.

For orientation: Emax means the maximal effect, on the per cent scale that the assay sets.

T1 sequence (Q9Y2T5 whole entry): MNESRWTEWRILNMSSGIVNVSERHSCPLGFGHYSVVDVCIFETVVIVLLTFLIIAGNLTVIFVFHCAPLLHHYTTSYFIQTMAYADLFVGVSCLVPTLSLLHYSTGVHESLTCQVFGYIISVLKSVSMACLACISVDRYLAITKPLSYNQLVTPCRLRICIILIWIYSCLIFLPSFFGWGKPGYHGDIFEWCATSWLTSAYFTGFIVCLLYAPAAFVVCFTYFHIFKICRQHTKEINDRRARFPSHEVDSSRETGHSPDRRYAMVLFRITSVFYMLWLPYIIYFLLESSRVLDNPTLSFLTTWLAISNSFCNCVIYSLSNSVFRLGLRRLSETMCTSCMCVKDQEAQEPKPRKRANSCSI

Turning to `NC1CCCc2c1nnn2-c1cc(Cc2cc(F)cc(C(F)(F)F)c2)ccn1` (single isomer, unassigned) [Example 1 Isomer 1, 1-(4-(3-fluoro-5-(trifluoromethyl)benzyl)pyridin-2-yl)-4,5,6,7-tetrahydro-1H-benzo[d][1,2,3]triazol-4-amine], the EC50 is 12.6 nM and the Emax was 101%.

For the compound `NC1CCCc2c1nnn2-c1cc(Cc2cc(F)cc(C(F)(F)F)c2)ccn1` (single isomer, unassigned) [Example 1 Isomer 2, 1-(4-(3-fluoro-5-(trifluoromethyl)benzyl)pyridin-2-yl)-4,5,6,7-tetrahydro-1H-benzo[d][1,2,3]triazol-4-amine], the EC50 was 63.1 nM and the “Emax (%)” value is 97%.

For the compound `CC(=O)NC1CCCc2c1nnn2-c1cc(Cc2cc(F)cc(C(F)(F)F)c2)ccn1` (single isomer, unassigned) [Example 2 Isomer 2, N-(1-(4-(3-fluoro-5-(trifluoromethyl)benzyl)pyridin-2-yl)-4,5,6,7-tetrahydro-1H-benzo[d][1,2,3]triazol-4-yl)acetamide], the EC50 was 2510 nM and the maximal response (Emax) was 78%.

As to `CC(=O)NC1CCCc2c1nnn2-c1cc(Cc2cc(F)cc(C(F)F)c2)ccn1` (single isomer, unassigned) [Example 13 Isomer 1, N-(1-(4-(3-(difluoromethyl)-5-fluorobenzyl)pyridin-2-yl)-4,5,6,7-tetrahydro-1H-benzo[d][1,2,3]triazol-4-yl)acetamide], the EC50 is 501 nM and the Emax was 73%.

Consider `CC(=O)NC1CCCc2c1nnn2-c1cc(Cc2cc(F)cc(C(F)F)c2)ccn1` (single isomer, unassigned) [Example 13 Isomer 2, N-(1-(4-(3-(difluoromethyl)-5-fluorobenzyl)pyridin-2-yl)-4,5,6,7-tetrahydro-1H-benzo[d][1,2,3]triazol-4-yl)acetamide], for which the EC50 was 5.01 nM and the “Emax (%)” value came to 93%.

Take `NC1CCCc2c1nnn2-c1cc(Cc2cc(F)cc(C(F)(F)F)c2)ccn1` (stereo not drawn) [Example 1, 1-(4-(3-fluoro-5-(trifluoromethyl)benzyl)pyridin-2-yl)-4,5,6,7-tetrahydro-1H-benzo[d][1,2,3]triazol-4-amine]: the EC50 is 25.1 nM and the Emax is 100%.

For the compound `CCC(=O)NC1CCCc2c1nnn2-c1cc(Cc2cc(F)cc(C(F)(F)F)c2)ccn1` (stereo not drawn) [Example 3, N-(1-(4-(3-fluoro-5-(trifluoromethyl)benzyl)pyridin-2-yl)-4,5,6,7-tetrahydro-1H-benzo[d][1,2,3]triazol-4-yl)propionamide], the EC50 is 25.1 nM and the Emax was 96%.

As for `O=C(NC1CCCc2c1nnn2-c1cc(Cc2cc(F)cc(C(F)(F)F)c2)ccn1)C(F)F` (stereo not drawn) [Example 4, 2,2-difluoro-N-(1-(4-(3-fluoro-5-(trifluoromethyl)benzyl)pyridin-2-yl)-4,5,6,7-tetrahydro-1H-benzo[d][1,2,3]triazol-4-yl)acetamide], the EC50 is 25.1 nM and the Emax is 87%.

On to `O=C(CF)NC1CCCc2c1nnn2-c1cc(Cc2cc(F)cc(C(F)(F)F)c2)ccn1` (stereo not drawn) [Example 5, 2-fluoro-N-[1-(4-{[3-fluoro-5-(trifluoromethyl)phenyl]methyl}pyridin-2-yl)-4,5,6,7-tetrahydro-1H-benzotriazol-4-yl]acetamide], for which the EC50 was 39.8 nM and the maximal response (Emax) amounted to 94%.

For `CC(=O)NC1CCCc2c1nnn2-c1cc(Oc2cc(F)cc(C(F)(F)F)c2)ccn1` (stereo not drawn) [Example 6, N-(1-(4-(3-fluoro-5-(trifluoromethyl)phenoxy)pyridin-2-yl)-4,5,6,7-tetrahydro-1H-benzo[d][1,2,3]triazol-4-yl)acetamide], the EC50 is 126 nM and the Emax was 89%.

Take `CNC1CCCc2c1nnn2-c1cc(Cc2cc(F)cc(C(F)(F)F)c2)ccn1` (stereo not drawn) [Example 7, 1-(4-(3-fluoro-5-(trifluoromethyl)benzyl)pyridin-2-yl)-N-methyl-4,5,6,7-tetrahydro-1H-benzo[d][1,2,3]triazol-4-amine]: the EC50 is 31.6 nM and the Emax turned out to be 98%.

For `COCCNC1CCCc2c1nnn2-c1cc(Cc2cc(F)cc(C(F)(F)F)c2)ccn1` (stereo not drawn) [Example 8, 1-(4-(3-fluoro-5-(trifluoromethyl)benzyl)pyridin-2-yl)-N-(2-methoxyethyl)-4,5,6,7-tetrahydro-1H-benzo[d][1,2,3]triazol-4-amine], the EC50 is 50.1 nM and the Emax was 94%.

With `Fc1cc(Cc2ccnc(-n3nnc4c3CCCC4NC3COC3)c2)cc(C(F)(F)F)c1` (stereo not drawn) [Example 9, 1-(4-(3-fluoro-5-(trifluoromethyl)benzyl)pyridin-2-yl)-N-(oxetan-3-yl)-4,5,6,7-tetrahydro-1H-benzo[d][1,2,3]triazol-4-amine], the EC50 was 100 nM and the Emax was 93%.

Turning to `Fc1cc(Cc2ccnc(-n3nnc4c3CCCC4NC3CCOC3)c2)cc(C(F)(F)F)c1` (stereo not drawn) [Example 10, 1-(4-(3-fluoro-5-(trifluoromethyl)benzyl)pyridin-2-yl)-N-(tetrahydrofuran-3-yl)-4,5,6,7-tetrahydro-1H-benzo[d][1,2,3]triazol-4-amine], the EC50 was 31.6 nM and the Emax is 94%.

With `CC(=O)NC1CCCc2c1nnn2-c1cc(Cc2cccc(C(F)(F)F)c2)ccn1` (stereo not drawn) [Example 11, N-(1-(4-(3-(trifluoromethyl)benzyl)pyridin-2-yl)-4,5,6,7-tetrahydro-1H-benzo[d][1,2,3]triazol-4-yl)acetamide], the EC50 is 200 nM and the Emax turned out to be 91%.

Regarding `CC(=O)NC1CCCc2c1nnn2-c1cc(Cc2cc(F)cc(OC(F)F)c2)ccn1` (stereo not drawn) [Example 12, N-(1-(4-(3-(difluoromethoxy)-5-fluorobenzyl)pyridin-2-yl)-4,5,6,7-tetrahydro-1H-benzo[d][1,2,3]triazol-4-yl)acetamide], the EC50 is 31.6 nM and the Emax was 87%.

With `CC(=O)NC1CCCc2c1nnn2-c1cc(Cc2cc(F)cc(C(F)F)c2)ccn1` (stereo not drawn) [Example 13, N-(1-(4-(3-(difluoromethyl)-5-fluorobenzyl)pyridin-2-yl)-4,5,6,7-tetrahydro-1H-benzo[d][1,2,3]triazol-4-yl)acetamide], the EC50 was 12.6 nM and the Emax was found to be 93%.

In the case of `CC(=O)NC1CCCc2c1nnn2-c1cc(Cc2cc(F)cc(CF)c2)ccn1` (stereo not drawn) [Example 14, N-(1-(4-(3-fluoro-5-(fluoromethyl)benzyl)pyridin-2-yl)-4,5,6,7-tetrahydro-1H-benzo[d][1,2,3]triazol-4-yl)acetamide], the EC50 is 50.1 nM and the Emax turned out to be 90%.
